Assay results as given in patent US20240024273A1, “TOPICAL ADMINISTRATION OF 2-(DIETHYLAMINO)ETHYL 2-(4-ISOBUTYLPHENYL)PROPRIONATE FOR TREATMENT OF DISEASES” (TECHFIELDS PHARMA CO., LTD., priority 2020, published 2024).
Where two headings read alike, the source gives them in different places.

Experiments:
[1] = Phase 1 clinical study: plasma pharmacokinetics of prodrug and ibuprofen; format: in vivo, human; conditions: 70 mg; for AUC0-12 / Cmax: human, plasma; for AUC0-12: read-out: prodrug AUC0-12, geometric mean; for Cmax: read-out: prodrug Cmax, geometric mean
Method: Following a 5-day washout period, 2-(diethylamino)ethyl 2-(4-isobutylphenyl)propionate was administered b.i.d. during Days 6-11, and a morning dose only was administered to Day 12. Blood samples were collected for PK analysis over the 120-hour post-dose period following the Day 12 dose. Additionally, pre-dose blood samples were collected on Day 7 through Day 11 to evaluate steady-state status.
The same study procedures were followed as described in Part 1.
For single dose PK, serial blood samples were collected on Day 1 dose at the following time points: 0 (pre-dose), 0.25, 0.5, 0.75, 1, 1.5, 2, 2.5, 3, 4, 5, 6, 8, 10, 12, 18, 24, 48, 72, 96 and 120 hours post-dose.
For multiple-dose PK, serial blood samples were collected on Day 12 at the following time points: 0 (pre-dose), 0.25, 0.5, 0.75, 1, 1.5, 2, 2.5, 3, 4, 5, 6, 8, 10, 12, 18, 24, 48, 72, 96 and 120 hours post-dose.
The relative bioavailability of the single dose 70 mg topical application vs. 70 mg spray application was determined based on AUCtau, AUCinf and Cmax. The 90% confidence intervals (CIs) on the ratio of topical application vs. spray application were calculated.

[2] = test system: Osteoarthritis; conditions: cited from earlier work
[3] = test system: Osteoarthritis; conditions: n=107; placebo −33.6; cited from earlier work
[4] = test system: osteoarthritis of the knee; conditions: cited from earlier work
[5] = topical or ocular, Day 1, 70 mg topical
[6] = topical or ocular, Day 12, 70 mg topical

## CCN(CC)CCOC(=O)C(C)c1ccc(CC(C)C)cc1.Cl (stereo not drawn) [2-(diethylamino)ethyl 2-(4-isobutylphenyl)propionate hydrochloride]
[1]; Day 1
  prodrug AUC0-12 ratio Topical/Spray: 3.28
  prodrug Cmax ratio Topical/Spray: 1.34
[1]; Day 12
  prodrug AUC0-12 ratio Topical/Spray: 0.91
  prodrug Cmax ratio Topical/Spray: 0.93
[1]; [5]
  AUC0-12: 0.913 ng·h/mL
  Cmax: 0.138 ng/mL
[1]; [6]
  AUC0-12: 0.953 ng·h/mL
  Cmax: 0.143 ng/mL
[1]; topical, Day 1, 70 mg spray
  AUC0-12: 0.279 ng·h/mL
  Cmax: 0.102 ng/mL
[1]; topical, Day 12, 70 mg spray
  AUC0-12: 1.05 ng·h/mL
  Cmax: 0.155 ng/mL

## COc1ccc2cc([C@H](C)C(=O)O)ccc2c1 [Naproxen]
[2]; 500 mg BID oral, Week 12
  difference from placebo, sign and symptoms of OA: −5.8
[2]; 500 mg BID
  patients improved by 2 grades or more from baseline (physician's global assessment): 33%
[2]; 500 mg, BID, orally, 12 Weeks, scale 0 to 96
  Mean ± SEM WOMAC Osteoarthritis Index Composite Score Change from Baselines: −11.9 ± 1.29
[3]
  Patient's Assessment of Arthritis Pain (VAS 0-100 mm), change: −37.5 mm
[4]; naproxen group
  average daily paracetamol use: 670 mg

## COc1ccc2cc([C@H](C)C(=O)OCCCCO[N+](=O)[O-])ccc2c1 [naproxcinod]
[4]; active groups
  decrease of paracetamol use vs placebo group: 19.2% to 24.9
